Read-outs that look alike come from different tables or passages of the source.
Assays:
[1] = target: T1, glutathione-S-transferase (GST) tagged LXRbeta LBD (ligand binding domain) (Homo sapiens, UniProt P55055); test: LanthaScreen TR-FRET Liver X Receptor Coactivator Assay, LXR beta; assay type: biochemical; settings: for EC50: LXR beta IP, potency (Inflection Point), compound-induced co-activator recruitment, TR-FRET; for Emax: read-out: LXR beta actiivty at max dose, efficacy (% Emax) in relation to reference dual agonist T0901317
T1 construct: purchased Invitrogen pv4658
T1 sequence (P55055 222-460 limits assumed): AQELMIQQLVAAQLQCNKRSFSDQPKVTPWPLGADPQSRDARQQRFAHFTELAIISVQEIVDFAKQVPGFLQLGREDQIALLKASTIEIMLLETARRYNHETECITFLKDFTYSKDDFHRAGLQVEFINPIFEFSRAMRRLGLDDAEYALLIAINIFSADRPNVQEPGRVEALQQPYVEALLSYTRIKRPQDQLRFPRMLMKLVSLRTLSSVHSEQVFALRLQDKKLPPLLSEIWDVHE
In short: (§1)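 TR-FRET read-out of coactivator recruitment: fluorescein-coactivator peptide plus Tb-anti-GST antibody added to LBD preincubated with compound; incubated at RT before reading.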

[2] = target: T2, glutathione-S-transferase (GST) tagged LXRalpha LBD (ligand binding domain) (Homo sapiens, UniProt Q13133); test: biochemical; settings: for EC50 / LXR alpha IP: potency (Inflection Point), compound-induced co-activator recruitment, TR-FRET
T2 construct: purchased Invitrogen pv4655
T2 sequence (Q13133 209-447 limits assumed): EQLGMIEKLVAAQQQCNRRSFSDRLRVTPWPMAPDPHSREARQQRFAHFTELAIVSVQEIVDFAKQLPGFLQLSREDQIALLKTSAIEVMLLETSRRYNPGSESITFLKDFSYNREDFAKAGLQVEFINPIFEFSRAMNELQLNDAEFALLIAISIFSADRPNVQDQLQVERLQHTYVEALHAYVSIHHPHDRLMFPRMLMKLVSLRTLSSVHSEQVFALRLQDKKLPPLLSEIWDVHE
In short: as §1

[3] = read-out: LXR alpha actiivty at max dose, efficacy (% Emax) in relation to reference dual agonist T0901317
[4] = efficacy (% Emax) in relation to reference dual agonist T0901317, read-out: LXR alpha actiivty at max dose

| Structure (SMILES) | EC50 [1] [nM] | Emax [1] [%] | EC50 ([2]; LXR alpha IP) [nM] | Emax [2, 3] [%] | Emax [2, 4] [%] | EC50 ([2]; read-out: LXR alpha IP) [nM] | LXR alpha IP [2] |
| --- | --- | --- | --- | --- | --- | --- | --- |
| CN(C)C(=O)c1ccc(OCC[C@@H]2C[C@@H]2C2CCN(C(=O)OCc3ccccc3)CC2)nc1Cl (single isomer, unassigned) [Example 10-7, benzyl 4-((1R,2S or 1S,2R)-2-(2-(6-chloro-5-(dimethylcarbamoyl)pyridin-2-yloxy)ethyl)cyclopropyl) piperidine-1-carboxylate] | 49 | 104 | 861 | 41 |  |  |  |
| CN(C)C(=O)c1ccc(OCC[C@H]2C[C@H]2C2CCN(C(=O)[C@](O)(c3ccccc3)C(F)(F)F)CC2)cc1C#N (single isomer, unassigned) [Example 11-1, 2-cyano-N,N-dimethyl-4-(2-((1R,2S or 1S,2R)-2-(1-((R or S)-3,3,3-trifluoro-2-hydroxy-2-phenylpropanoyl)piperidin-4-yl)cyclopropyl)ethoxy)benzamide] | 106 | 78 |  |  | 23 | 1420 |  |
| CN(C)C(=O)c1ccc(OCCC2CC23CCN(C(=O)C2(c4ccccc4)CCCC2)CC3)cc1Cl (single isomer, unassigned) [Example 12-1, (R or S)-2-chloro-N,N-dimethyl-4-(2-(6-(1-phenylcyclopentanecarbonyl)-6-azaspiro[2.5]octan-1-yl)ethoxy)benzamide] | 24 | 58 |  |  | 1 |  | No IP |
| Cc1nnc(C(C)(C)C(=O)N2CCC3(CC2)CC3CCOc2ccc(C(=O)N(C)C)c(Cl)c2)s1 (single isomer, unassigned) [Example 12-2, (R or S)-2-chloro-N,N-dimethyl-4-(2-(6-(2-methyl-2-(5-methyl-1,3,4-thiadiazol-2-yl)propanoyl)-6-azaspiro[2.5]octan-1-yl)ethoxy)benzamide] | 661 | 57 | 10500 | 52 |  |  |  |
| CN(C)C(=O)c1ccc(OCCC2CC23CCN(C(=O)Cc2cccc(Br)c2)CC3)cc1Cl (single isomer, unassigned) [Example 12-3, (R or S)-4-(2-(6-(2-(3-bromophenyl)acetyl)-6-azaspiro[2.5]octan-1-yl)ethoxy)-2-chloro-N,N-dimethylbenzamide] | 153 | 28 |  | 1 |  |  | No IP |
| CN(C)C(=O)c1ccc(OCCC2CC23CCN(C(=O)C2(c4ccccc4)CCCN(C(=O)OC(C)(C)C)C2)CC3)cc1Cl (single isomer, unassigned) [Example 12-4, tert-butyl 3-((R or S)-1-(2-(3-chloro-4-(dimethylcarbamoyl)phenoxy)ethyl)-6-azaspiro[2.5]octane-6-carbonyl)-3-phenylpiperidine-1-carboxylate] | 182 | 22 |  | 0 |  |  | No IP |
| CN(C)C(=O)c1ccc(OCCC2CC23CCN(C(=O)C2(c4ccccc4Cl)CCC2)CC3)cc1Cl (single isomer, unassigned) [Example 12-5, (R or S)-2-chloro-4-(2-(6-(1-(2-chlorophenyl)cyclobutanecarbonyl)-6-azaspiro[2.5]octan-1-yl)ethoxy)-N,N-dimethylbenzamide] | 3 | 54 | 91 | 49 |  |  |  |
| CN(C)C(=O)c1ccc(OCCC2CC23CCN(C(=O)C2(c4ccccc4C(F)(F)F)CCC2)CC3)cc1Cl (single isomer, unassigned) [Example 12-6, (R or S)-2-chloro-N,N-dimethyl-4-(2-(6-(1-(2-(trifluoromethyl)phenyl)cyclobutanecarbonyl)-6-azaspiro[2.5]octan-1-yl)ethoxy)benzamide] | 4 | 68 | 80 | 48 |  |  |  |
| CN(C)C(=O)c1ccc(OCCC2CC23CCN(C(=O)C(C)(C)c2ccsc2)CC3)cc1Cl (single isomer, unassigned) [Example 12-7, (R or S)-2-chloro-N,N-dimethyl-4-(2-(6-(2-methyl-2-(thiophen-3-yl)propanoyl)-6-azaspiro[2.5]octan-1-yl)ethoxy)benzamide] | 29 | 64 | 589 | 39 |  |  |  |
| CN(C)C(=O)c1ccc(OCC[C@H]2CC23CCN(C(=O)[C@@](N)(c2ccccc2)C(F)(F)F)CC3)cc1Cl (single isomer, unassigned) [Example 12-8, 4-(2-((R or S)-6-((S or R)-2-amino-3,3,3-trifluoro-2-phenylpropanoyl)-6-azaspiro[2.5]octan-1-yl)ethoxy)-2-chloro-N,N-dimethylbenzamide] | 135 | 67 | 2230 | 23 |  |  |  |
| CN(C)C(=O)c1ccc(OCC[C@H]2CC23CCN(C(=O)[C@](N)(c2ccccc2)C(F)(F)F)CC3)cc1Cl (single isomer, unassigned) [Example 12-9, 4-(2-((R or S)-6-((R or S)-2-amino-3,3,3-trifluoro-2-phenylpropanoyl)-6-azaspiro[2.5]octan-1-yl)ethoxy)-2-chloro-N,N-dimethylbenzamide] | 50 | 65 |  | 0 |  |  | No IP |
| CN(C)C(=O)c1ccc(OCCC2CC23CCN(C(=O)C(C)(C)c2csc(N)n2)CC3)cc1Cl (single isomer, unassigned) [Example 12-10, (R or S)-4-(2-(6-(2-(2-aminothiazol-4-yl)-2-methylpropanoyl)-6-azaspiro[2.5]octan-1-yl)ethoxy)-2-chloro-N,N-dimethylbenzamide] | 608 | 61 | 3740 | 21 |  |  |  |

Second part, the compound after the results:

| EC50 [1] [nM] | Emax [1] [%] | EC50 ([2]; LXR alpha IP) [nM] | Emax [2, 3] [%] | Emax [2, 4] [%] | EC50 ([2]; read-out: LXR alpha IP) [nM] | LXR alpha IP [2] | Structure (SMILES) |
| --- | --- | --- | --- | --- | --- | --- | --- |
| 12 | 87 | 447 | 24 |  |  |  | CN(C)C(=O)c1ccc(OCCC2CC23CCN(C(=O)C2(c4cc(F)ccc4F)CCC2)CC3)cc1Cl (single isomer, unassigned) [Example 12-11, (S or R)-2-chloro-4-(2-(6-(1-(2,5-difluorophenyl)cyclobutanecarbonyl)-6-azaspiro[2.5]octan-1-yl)ethoxy)-N,N-dimethylbenzamide] |
| 81 | 60 |  | 28 |  |  | No IP | CN(C)C(=O)c1ccc(OCCC2CC23CCN(C(=O)C2(c4ccc(Br)cc4)COC2)CC3)cc1Cl (single isomer, unassigned) [Example 12-12, (S or R)-4-(2-(6-(3-(4-bromophenyl)oxetane-3-carbonyl)-6-azaspiro[2.5]octan-1-yl)ethoxy)-2-chloro-N,N-dimethylbenzamide] |
| 17 | 72 | 505 | 26 |  |  |  | CCC(C)(C(=O)N1CCC2(CC1)C[C@H]2CCOc1ccc(C(=O)N(C)C)c(Cl)c1)c1ccccc1 (single isomer, unassigned) [Example 12-13, 2-chloro-N,N-dimethyl-4-(2-((1S or 1R)-6-(2-methyl-2-phenylbutanoyl)-6-azaspiro[2.5]octan-1-yl)ethoxy)benzamide] |
| 22 | 74 | 343 | 20 |  |  |  | CN(C)C(=O)c1ccc(OCC[C@@H]2CC23CCN(C(=O)C(C)(c2ccccc2)C2CCC2)CC3)cc1Cl (single isomer, unassigned) [Example 12-14, 2-chloro-4-(2-((S or R)-6-((S or R)-2-cyclobutyl-2-phenylpropanoyl)-6-azaspiro[2.5]octan-1-yl)ethoxy)-N,N-dimethylbenzamide] |
| 62 | 79 | 2090 | 37 |  |  |  | CC(C)[C@@](O)(C(=O)N1CCC2(CC1)C[C@H]2CCOc1ccc(C(=O)N(C)C)c(Cl)c1)C(F)(F)F (single isomer, unassigned) [Example 12-15, 2-chloro-4-(2-((S or R)-6-((R or S)-2-hydroxy-3-methyl-2-(trifluoromethyl)butanoyl)-6-azaspiro[2.5]octan-1-yl)ethoxy)-N,N-dimethylbenzamide] |
| 26 | 33 |  | 8 |  |  | No IP | CN(C)C(=O)c1ccc(OCC[C@@H]2CC23CCN(C(=O)C(O)(c2cccc4c2OC(F)(F)O4)C(F)(F)F)CC3)cc1Cl (single isomer, unassigned) [Example 12-16, 2-chloro-4-(2-((1S or 1R)-6-(2-(2,2-difluorobenzo[d][1, 3]dioxol-4-yl)-3,3,3-trifluoro-2-hydroxypropanoyl)-6-azaspiro[2.5]octan-1-yl)ethoxy)-N,N-dimethylbenzamide] |
